The test system of the assay is normotensive Sprague Dawley rats. Nature of the assay: Blood pressure effects in normotensive rats following acute oral dose. It counts as in vivo, rat. As to conditions: for Peak ΔVMAP (mm Hg): sodium salt in Milli-Q water, vehicle-adjusted MAP, 10-minute bins; for Time at Peak: time of peak ΔVMAP. Here is the method: Male, normotensive Sprague Dawley rats were purchased from Charles River Laboratories. These rats have indwelling femoral artery catheters installed. Animals were harnessed to a tether system and attached to pressure transducers to monitor cardiovascular (CV) parameters, specifically mean arterial pressure (MAP) and heart rate (HR). Animals were acclimated to the system overnight and baseline CV parameters collected. The conscious, freely moving rats were then administered a single oral dose of the Compound I-14 (doses generated from the sodium salt of Compound I-14) in Milli-Q water at 1, 3, 10 and 30 mg/kg. A blood sample was collected from each animal through the catheter line at pre-dose and 2 hours post-dose for compound concentration quantification. Hemodynamic measures were recorded for ten hours post-dose. Fifty-four male rats were used for these studies and they were ordered to be received at a body weight range of 250-275 grams. They were single housed under controlled conditions of temperature (21±1° C.), relative humidity (36±1%) and placed in a 12-hr light-dark cycle (lights on at 6:00 AM and off at 6:00 PM) room at SmartLabs vivarium (21 Erie Street, Cambridge, MA) under protocol MIL-110. Animals were allowed ad libitum access to chow (LabDiet Prolab Isopro RMH 3000, St. Louis, MO) and water. Two sets of studies were carried out. For the first set of studies Compound I-14 was formulated at 0.3 and 1.0 mg/ml in Milli-Q water and frozen at −20° C. For the second set of studies, the sodium salt of Compound I-14 was weighed at Cyclerion Therapeutics and reconstituted at SmartLabs to provide 0.1, 0.3, 1.0 and 3.0 mg/ml solutions of Compound I-14 in Milli-Q water. Formulations prepared were thawed less than 4 hours before dosing and stored at room temperature or were made less than 2 hours before dosing and stored at room temperature.
Studies were conducted over 6 separate sessions. Animals were initially used within 3 days of receipt and if catheters remained patent, reused once after 6-7 days of washout. No animals were used more than twice.
This study utilized ADInstruments LabChart (v8) to collect hemodynamic data from conscious, freely moving rats tethered to a blood pressure transducer (Harvard Apparatus cat #APT300). Following an overnight acclimation to the tether and pressure transducer, animals were dosed following a 1-hr baseline recording period. Animals were administered a single oral (P.O.) dose of the sodium salt form of Compound I-14 or vehicle at a dose volume of 10 mL/kg. Data collection was continued for 10 hours post-dose.
ADInstruments LabChart (v8) was used to monitor and export hemodynamic data. Blood pressure and heart rate were continuously monitored, and data were collected at 1000 data points per second then averaged into 10-minute bins for analysis. Change from baseline MAP (ABMAP) and HR (ABHR) were calculated using the pre-dose baseline averaged over the 1-hr period prior to dosing using Microsoft Excel for Microsoft 365. This 10-minute bin dataset was used to determine peak ΔVMAP, time peak ΔVMAP, peak ΔVHR and time of peak ΔVHR. The dataset was further consolidated into 1-hr bins for the MAP and HR figures and the analysis of ΔBMAP, ΔBMAP, and ΔBHR. The definitions of these terms/abbreviations are summarized below:
Statistical analyses were performed in Graphpad Prism (v8). Significance, as compared to vehicle-treated rats, for ΔBMAP and ΔBHR data was determined by 2-way repeated measures ANOVA followed by a Dunnett's multiple comparisons test, if there was a missing data point, a mixed-effect analysis was utilized. Vehicle-adjusted MAP (ΔVMAP) was calculated by subtracting ΔBMAP of the vehicle group from the ΔBMAP of each dose group at each timepoint. Vehicle-adjusted HR (ΔVHR) was calculated in a similar manner to ΔVMAP.
Significance of AOC data were determined by one-way ANOVA followed by a Dunnett's multiple comparisons test as compared to vehicle. […]

We go through 1 molecule from patent publication US20260151391A1, “TREATMENT OF MITOCHONDRIAL DISEASES WITH sGC STIMULATORS” (Tisento Therapeutics Inc., priority 2022, published 2026).

`Cc1cc(F)c(Cc2nc(-c3ncc(F)c(O)n3)cn3ccnc23)cc1F` [Compound I-14, 5-fluoro-2-(8-(2,5-difluoro-4-methylbenzyl)imidazo[1,2-a]pyrazin-6-yl)pyrimidin-4-ol]: the “Peak ΔVMAP (mm Hg)” value reads like this: (1 mg/kg single oral dose) −6.2 mm Hg; (3 mg/kg single oral dose) −10.1 mm Hg; (10 mg/kg single oral dose) −22.3 mm Hg; (30 mg/kg single oral dose) −24.4 mm Hg. Moreover, the “no effect dose on ΔBMAP” value (single oral dose, main effect analysis, simple effects analysis and AOC) was 1 mg/kg. Also, the “Time at Peak” value is, setting by setting: (1 mg/kg single oral dose) 90 min; (3 mg/kg single oral dose) 70 min; (10 mg/kg single oral dose) 30 min; (30 mg/kg single oral dose) 30 min.
